Measurements taken from patent US20190330275A1 (priority 2016, published 2019).
“And” between values parts separate entries of the source, which are not always exact repeats. Identical values can stand only once. Peptide text beside a SMILES is read from it.

Key:
rat α6/α3β4 nAChR = rat α6/α3β4 nAChR (Rattus norvegicus, UniProt P04757+P12392+P43143); assay: cell-based
rat α3β4 nAChR = rat α3β4 nAChR (Rattus norvegicus, UniProt P04757+P12392); assay: cell-based; details: for IC50: α3β4 IC50 (half-blocking dose)
[1] = α6/α3β4 IC50 (half-blocking dose)

rat α3β4 nAChR, sequence (P04757 26-499 limits assumed): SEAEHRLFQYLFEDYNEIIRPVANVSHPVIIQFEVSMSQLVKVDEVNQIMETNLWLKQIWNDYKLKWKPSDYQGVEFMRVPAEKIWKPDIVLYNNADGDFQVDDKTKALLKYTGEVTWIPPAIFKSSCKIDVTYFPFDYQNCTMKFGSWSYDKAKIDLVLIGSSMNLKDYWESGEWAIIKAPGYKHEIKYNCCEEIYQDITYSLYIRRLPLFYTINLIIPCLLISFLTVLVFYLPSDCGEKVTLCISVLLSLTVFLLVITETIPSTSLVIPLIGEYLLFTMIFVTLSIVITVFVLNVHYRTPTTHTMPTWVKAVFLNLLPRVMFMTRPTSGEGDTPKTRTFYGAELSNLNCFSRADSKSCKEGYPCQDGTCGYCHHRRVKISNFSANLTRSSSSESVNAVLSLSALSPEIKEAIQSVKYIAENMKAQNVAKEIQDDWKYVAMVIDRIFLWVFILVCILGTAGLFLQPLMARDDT
rat α3β4 nAChR, sequence (P12392 21-495 limits assumed): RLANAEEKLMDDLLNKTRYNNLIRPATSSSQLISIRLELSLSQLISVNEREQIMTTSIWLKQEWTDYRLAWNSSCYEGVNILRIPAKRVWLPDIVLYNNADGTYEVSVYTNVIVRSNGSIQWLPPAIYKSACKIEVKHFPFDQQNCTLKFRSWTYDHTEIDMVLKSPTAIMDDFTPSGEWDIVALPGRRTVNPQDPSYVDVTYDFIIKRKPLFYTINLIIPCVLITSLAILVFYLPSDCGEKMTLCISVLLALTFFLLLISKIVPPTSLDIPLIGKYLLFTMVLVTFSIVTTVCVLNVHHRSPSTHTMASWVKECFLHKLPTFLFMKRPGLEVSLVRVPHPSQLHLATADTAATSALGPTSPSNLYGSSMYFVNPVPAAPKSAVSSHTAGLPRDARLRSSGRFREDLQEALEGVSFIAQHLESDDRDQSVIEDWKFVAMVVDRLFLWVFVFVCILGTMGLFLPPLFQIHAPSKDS
rat α6/α3β4 nAChR, sequence (P04757 whole entry, looked up): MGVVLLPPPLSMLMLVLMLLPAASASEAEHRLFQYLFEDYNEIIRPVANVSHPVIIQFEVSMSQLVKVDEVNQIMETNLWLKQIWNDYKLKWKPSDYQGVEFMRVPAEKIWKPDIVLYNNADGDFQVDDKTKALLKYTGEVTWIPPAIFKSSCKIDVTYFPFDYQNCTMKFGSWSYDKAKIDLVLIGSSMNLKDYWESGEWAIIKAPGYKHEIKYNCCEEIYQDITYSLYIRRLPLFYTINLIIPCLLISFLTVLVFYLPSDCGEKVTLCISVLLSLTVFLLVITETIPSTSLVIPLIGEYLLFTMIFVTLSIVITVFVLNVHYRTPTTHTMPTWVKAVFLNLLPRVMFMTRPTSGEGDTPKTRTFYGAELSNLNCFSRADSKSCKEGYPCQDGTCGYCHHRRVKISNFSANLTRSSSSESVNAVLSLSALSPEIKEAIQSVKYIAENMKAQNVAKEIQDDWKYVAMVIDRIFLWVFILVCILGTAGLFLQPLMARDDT
rat α6/α3β4 nAChR, sequence (P12392 whole entry, looked up): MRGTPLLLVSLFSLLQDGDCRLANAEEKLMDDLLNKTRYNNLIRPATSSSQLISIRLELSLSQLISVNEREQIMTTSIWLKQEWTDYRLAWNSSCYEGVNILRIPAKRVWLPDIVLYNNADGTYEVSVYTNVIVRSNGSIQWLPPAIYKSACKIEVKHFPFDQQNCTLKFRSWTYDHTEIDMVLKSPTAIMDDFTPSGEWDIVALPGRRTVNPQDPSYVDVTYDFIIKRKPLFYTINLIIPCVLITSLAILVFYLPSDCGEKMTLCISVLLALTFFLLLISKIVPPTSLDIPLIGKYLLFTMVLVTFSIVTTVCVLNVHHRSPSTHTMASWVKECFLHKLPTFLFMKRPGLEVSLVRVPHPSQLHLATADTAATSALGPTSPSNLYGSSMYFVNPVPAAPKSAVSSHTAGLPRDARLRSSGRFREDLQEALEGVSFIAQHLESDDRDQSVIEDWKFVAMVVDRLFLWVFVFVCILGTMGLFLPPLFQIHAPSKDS
rat α6/α3β4 nAChR, sequence (P43143 whole entry, looked up): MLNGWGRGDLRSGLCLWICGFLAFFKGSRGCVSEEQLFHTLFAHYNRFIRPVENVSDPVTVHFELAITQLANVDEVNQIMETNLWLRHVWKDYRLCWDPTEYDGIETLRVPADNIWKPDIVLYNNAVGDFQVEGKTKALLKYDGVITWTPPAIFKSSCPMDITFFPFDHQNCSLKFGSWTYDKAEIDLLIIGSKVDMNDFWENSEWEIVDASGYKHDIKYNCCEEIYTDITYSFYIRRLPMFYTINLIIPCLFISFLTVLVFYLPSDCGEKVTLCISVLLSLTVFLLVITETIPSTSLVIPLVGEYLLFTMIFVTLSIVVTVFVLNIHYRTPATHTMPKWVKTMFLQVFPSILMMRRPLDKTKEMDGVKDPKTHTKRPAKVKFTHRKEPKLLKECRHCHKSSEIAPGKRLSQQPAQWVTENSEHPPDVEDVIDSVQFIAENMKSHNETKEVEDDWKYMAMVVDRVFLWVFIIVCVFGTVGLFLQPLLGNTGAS

Compound	IC50 ratio of α6/α3β4 vs. α3β4 (Discrimination) (rat α6/α3β4 nAChR)	α6/α3β4 IC50 ratio (rat α6/α3β4 nAChR)	IC50 (rat α6/α3β4 nAChR; [1])	α3β4 IC50 ratio (rat α3β4 nAChR)	IC50 (rat α3β4 nAChR)	other results
CSCC[C@@H]1NC(=O)[C@H](C)NC(=O)[C@H](CO)NC(=O)[C@@H]2CSSC[C@H](NC(=O)CN)C(=O)N[C@@H](CSSC[C@@H](C(N)=O)NC(=O)[C@H](CCCNC(=N)N)NC(=O)[C@@H]3CCCN3C(=O)[C@H](CO)NC1=O)C(=O)N[C@@H](CO)C(=O)N[C@@H](Cc1c[nH]cn1)C(=O)N1CCC[C@H]1C(=O)N[C@@H](C(C)C)C(=O)N2 [TxID[I14R]] (HELM PEPTIDE1{G.C.C.S.H.P.V.C.S.A.M.S.P.R.C.[am]}$PEPTIDE1,PEPTIDE1,2:R3-8:R3|PEPTIDE1,PEPTIDE1,3:R3-15:R3$$$V2.0)	7.3	2.0	67.4 nM	2.5	9.2 nM	
CSCC[C@@H]1NC(=O)[C@H](C)NC(=O)[C@H](CO)NC(=O)[C@@H]2CSSC[C@H](NC(=O)CN)C(=O)N[C@@H](CSSC[C@@H](C(N)=O)NC(=O)[C@H](Cc3ccc(O)cc3)NC(=O)[C@@H]3CCCN3C(=O)[C@H](CO)NC1=O)C(=O)N[C@@H](CO)C(=O)N[C@@H](Cc1c[nH]cn1)C(=O)N1CCC[C@H]1C(=O)N[C@@H](C(C)C)C(=O)N2 [TxID[I14Y]] (HELM PEPTIDE1{G.C.C.S.H.P.V.C.S.A.M.S.P.Y.C.[am]}$PEPTIDE1,PEPTIDE1,2:R3-8:R3|PEPTIDE1,PEPTIDE1,3:R3-15:R3$$$V2.0)	3.9	1.1	38.7 nM	2.7	10 nM	
CC[C@H](C)[C@@H]1NC(=O)[C@@H]2CCCN2C(=O)[C@H](CO)NC(=O)[C@H](Cc2c[nH]cn2)NC(=O)[C@H](C)NC(=O)[C@H](CO)NC(=O)[C@@H]2CSSC[C@H](NC(=O)CN)C(=O)N[C@@H](CSSC[C@@H](C(N)=O)NC1=O)C(=O)N[C@@H](CO)C(=O)N[C@@H](Cc1c[nH]cn1)C(=O)N1CCC[C@H]1C(=O)N[C@@H](C(C)C)C(=O)N2 [TxID[M11H]] (HELM PEPTIDE1{G.C.C.S.H.P.V.C.S.A.H.S.P.I.C.[am]}$PEPTIDE1,PEPTIDE1,2:R3-8:R3|PEPTIDE1,PEPTIDE1,3:R3-15:R3$$$V2.0)		103	3490 nM		> 10000 nM	IC50 (rat α6/α3β4 nAChR; α6/α3β4 IC50): 1000 to 10000 nM; blocking effect on the current of rat α3β4 nAChRs (rat α3β4 nAChR): no blocking effects
CC[C@H](C)[C@@H]1NC(=O)[C@@H]2CCCN2C(=O)[C@H](CO)NC(=O)[C@H](CCSC)NC(=O)[C@H](C)NC(=O)[C@H](CO)NC(=O)[C@@H]2CSSC[C@H](NC(=O)CN)C(=O)N[C@@H](CSSC[C@@H](C(N)=O)NC1=O)C(=O)N[C@@H](CO)C(=O)N[C@@H](Cc1c[nH]cn1)C(=O)N[C@@H](C)C(=O)N[C@@H](C(C)C)C(=O)N2 [TxID[P6A]] (HELM PEPTIDE1{G.C.C.S.H.A.V.C.S.A.M.S.P.I.C.[am]}$PEPTIDE1,PEPTIDE1,2:R3-8:R3|PEPTIDE1,PEPTIDE1,3:R3-15:R3$$$V2.0)			> 10000 nM		> 10000 nM	
CC[C@H](C)[C@@H]1NC(=O)[C@H](C)NC(=O)[C@H](CO)NC(=O)[C@H](CCSC)NC(=O)[C@H](C)NC(=O)[C@H](CO)NC(=O)[C@@H]2CSSC[C@H](NC(=O)CN)C(=O)N[C@@H](CSSC[C@@H](C(N)=O)NC1=O)C(=O)N[C@@H](CO)C(=O)N[C@@H](Cc1c[nH]cn1)C(=O)N1CCC[C@H]1C(=O)N[C@@H](C(C)C)C(=O)N2 [TxID[P13A]] (HELM PEPTIDE1{G.C.C.S.H.P.V.C.S.A.M.S.A.I.C.[am]}$PEPTIDE1,PEPTIDE1,2:R3-8:R3|PEPTIDE1,PEPTIDE1,3:R3-15:R3$$$V2.0)			> 10000 nM		> 10000 nM	
CC[C@H](C)[C@@H]1NC(=O)[C@@H]2CCCN2C(=O)[C@H](CO)NC(=O)[C@H](CCSC)NC(=O)[C@H](C)NC(=O)[C@H](CO)NC(=O)[C@@H]2CSSC[C@H](NC(=O)CN)C(=O)N[C@@H](CSSC[C@@H](C(N)=O)NC1=O)C(=O)N[C@@H](C)C(=O)N[C@@H](Cc1c[nH]cn1)C(=O)N1CCC[C@H]1C(=O)N[C@@H](C(C)C)C(=O)N2 [TxID[S4A]] (HELM PEPTIDE1{G.C.C.A.H.P.V.C.S.A.M.S.P.I.C.[am]}$PEPTIDE1,PEPTIDE1,2:R3-8:R3|PEPTIDE1,PEPTIDE1,3:R3-15:R3$$$V2.0)	5.9	1.9		3.0		
CC[C@H](C)[C@@H]1NC(=O)[C@@H]2CCCN2C(=O)[C@H](CO)NC(=O)[C@H](CC(C)C)NC(=O)[C@H](C)NC(=O)[C@H](C)NC(=O)[C@@H]2CSSC[C@H](NC(=O)CN)C(=O)N[C@@H](CSSC[C@@H](C(N)=O)NC1=O)C(=O)N[C@@H](CO)C(=O)N[C@@H](Cc1c[nH]cn1)C(=O)N1CCC[C@H]1C(=O)N[C@@H](C(C)C)C(=O)N2 [TxID[S9A, M11I]] (HELM PEPTIDE1{G.C.C.S.H.P.V.C.A.A.L.S.P.I.C.[am]}$PEPTIDE1,PEPTIDE1,2:R3-8:R3|PEPTIDE1,PEPTIDE1,3:R3-15:R3$$$V2.0)	0.3	3.0		8.4		
CC[C@H](C)[C@@H]1NC(=O)[C@@H]2CCCN2C(=O)[C@H](CO)NC(=O)[C@H](CCSC)NC(=O)[C@H](C)NC(=O)[C@H](C)NC(=O)[C@@H]2CSSC[C@H](NC(=O)CN)C(=O)N[C@@H](CSSC[C@@H](C(N)=O)NC1=O)C(=O)N[C@@H](CO)C(=O)N[C@@H](Cc1c[nH]cn1)C(=O)N1CCC[C@H]1C(=O)N[C@@H](C(C)C)C(=O)N2 [TxID[S9A]] (HELM PEPTIDE1{G.C.C.S.H.P.V.C.A.A.M.S.P.I.C.[am]}$PEPTIDE1,PEPTIDE1,2:R3-8:R3|PEPTIDE1,PEPTIDE1,3:R3-15:R3$$$V2.0)						blocking activity to α6β4* nAChRs subtype (rat α6/α3β4 nAChR): completely lost the blocking activity; current blocked (rat α6/α3β4 nAChR): 26%; binding (blocking) activity to α3β4 nAChR compared with wild type TxID (rat α3β4 nAChR): no effect on the blocking activity; current blocked (rat α3β4 nAChR): 98% and 75%
CC[C@@H]1NC(=O)[C@@H]2CSSC[C@H](NC(=O)CN)C(=O)N[C@@H](CSSC[C@@H](C(N)=O)NC(=O)[C@H]([C@@H](C)CC)NC(=O)[C@@H]3CCCN3C(=O)[C@H](CO)NC(=O)[C@H](CCSC)NC(=O)[C@H](C)NC1=O)C(=O)N[C@@H](CO)C(=O)N[C@@H](Cc1c[nH]cn1)C(=O)N1CCC[C@H]1C(=O)N[C@@H](C(C)C)C(=O)N2 [TxID[S9Abu], GCCSHPVCBAMSPIC*] (HELM PEPTIDE1{G.C.C.S.H.P.V.C.[Abu].A.M.S.P.I.C.[am]}$PEPTIDE1,PEPTIDE1,2:R3-8:R3|PEPTIDE1,PEPTIDE1,3:R3-15:R3$$$V2.0)						binding (blocking) activity to α6/α3β4 nAChR compared with wild type TxID (rat α6/α3β4 nAChR): not significantly different from the activity of the wild type TxID; binding (blocking) activity to α3β4 nAChR compared with wild type TxID (rat α3β4 nAChR): not significantly different from the activity of the wild type TxID; elution after blocking the α3β4 nAChR current (rat α3β4 nAChR): very slow
